Assay results: US7396525B2, “Care/makeup compositions comprising a 2-alkylideneaminooxyacetamide compound for stimulating the growth of the hair or eyelashes and/or slowing loss thereof” (L'Oreal, priority 2003, dated 2008)

Biological target: T1, PGF synthase (PGFS) (Homo sapiens, UniProt P42330)
T1 construct: made in house
T1 sequence (P42330 1-323): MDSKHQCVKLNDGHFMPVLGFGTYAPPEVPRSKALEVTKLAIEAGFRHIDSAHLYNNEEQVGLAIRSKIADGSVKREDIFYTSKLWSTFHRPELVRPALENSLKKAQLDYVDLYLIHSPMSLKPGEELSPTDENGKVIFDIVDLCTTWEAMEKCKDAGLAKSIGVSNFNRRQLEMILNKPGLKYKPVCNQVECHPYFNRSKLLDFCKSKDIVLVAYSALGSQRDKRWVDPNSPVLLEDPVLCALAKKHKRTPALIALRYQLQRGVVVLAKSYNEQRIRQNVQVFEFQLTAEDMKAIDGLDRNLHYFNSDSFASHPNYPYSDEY
Test: Test on PGF synthase (spectrophotometric, 340 nm, 9,10-phenanthrenequinone/β-NADPH)
Assay type: biochemical
Experimental: The enzyme PGFS is obtained as disclosed in FR-A-02/05067, at a concentration of 0.5 mg/ml, in suspension in an appropriate medium, and is blocked at −80° C. For the requirements of the test, this suspension is defrosted and stored in ice.
Furthermore, a Tris 100 mM, pH=6.5, buffer comprising 20 μM of 9,10-phenanthrenequinone*(P2896, Sigma-Aldrich, L'isle D'Abeau Chesne, BP 701, 38297, Saint Quentin Fallavier) and 100 μM of β-NADPH (N1630, Sigma-Aldrich, L'isle D'Abeau Chesne, BP 701, 38297, Saint Quentin Fallavier) is prepared in a brown bottle (exclusion of light). *A mother solution assaying 1 mM is prepared in absolute ethanol and is brought to 40° C.; the bottle is placed in an ultrasonic bath to facilitate the dissolution of the product.
0.950 ml of this buffer (brought beforehand to 37° C.) is introduced into the cell of a spectrophotometer (Perkin-Elmer, Lambda 2) thermostatically controlled at 37° C., the wavelength of which for the measurement is adjusted to 340 nm. 0.05 ml of enzymatic suspension at 37° C. is introduced into the cell concomitantly with the recording (corresponding to a fall in optical density at 340 nm). The maximum rate of reaction is noted.

SMILES: C/C(=N/OCC(=O)Nc1ccccc1)c1cccs1 [Compound 1, N-Phenyl-2({[(1Z)-1-(thien-2-yl)-ethylidene]amino}oxy)acetamide]
- IC50: 50 to 100 µM
